Results from ChEMBL document CHEMBL5532639, “Heterocyclic pyrimidine derivatives as promising antibacterial agents” (Eur J Med Chem, 2023).
In brackets after ≈: the same amount, converted by molar mass.

How the values were obtained:
Staphylococcus aureus [1] = assay: Antibacterial activity against Staphylococcus aureus assessed as bacterial growth inhibition incubated for 24 hrs by CLSI protocol based Mueller-Hinton broth assay; type: functional
Enterococcus raffinosus = assay: Antibacterial activity against Enterococcus raffinosus assessed as bacterial growth inhibition incubated for 24 hrs by CLSI protocol based Mueller-Hinton broth assay; type: functional
Staphylococcus aureus [2] = assay: Antimicrobial activity against Staphylococcus aureus assessed as inhibition of microbial growth incubated for 18 hrs by CLSI protocol based Mueller-Hinton broth assay; type: functional
Salmonella enterica = assay: Antimicrobial activity against Salmonella enterica assessed as inhibition of microbial growth incubated for 18 hrs by CLSI protocol based Mueller-Hinton broth assay; type: functional
Morganella morganii [3] = assay: Antibacterial activity against Morganella morganii UM869 incubated for 16 to 18 hrs by broth microdilution method; type: functional; conditions: time 16-18 hrs
[4] = test system: Salmonella enterica subsp. enterica serovar Paratyphi B; assay: Antibacterial activity against Salmonella paratyphi B CICC 21495 assessed as reduction in […]; type: functional; conditions: time lower 48 hrs
Salmonella typhimurium [5] = assay: Antibacterial activity against Salmonella typhimurium DT104 assessed as reduction in bacterial growth inhibition measured after 24 hrs by Mueller Hinton Agar dilution method; type: functional, Salmonella enterica subsp. enterica serovar Typhimurium; conditions: Salmonella enterica
Enterobacter sp. = assay: Antibacterial activity against Enterobacter sp. assessed as inhibition of bacterial growth; type: functional
Vibrio cholerae [6] = assay: Antibacterial activity against Vibrio cholerae measured after 18 to 20 hrs by broth microdilution method; type: functional; conditions: time 18-20 hrs
Bacillus subtilis [7] = assay: Antibacterial activity against Bacillus subtilis assessed as reduction in bacterial growth incubated for 24 hrs by CLSI protocol based Mueller-Hinton broth assay; type: functional
Aeromonas hydrophila = assay: Antibacterial activity against Aeromonas hydrophila assessed as inhibition of microbial growth incubated for 24 hrs by CLSI protocol based Mueller-Hinton broth assay; type: functional
Escherichia coli [8] = assay: Antimicrobial activity against Escherichia coli assessed as inhibition of microbial growth incubated for 18 hrs by CLSI protocol based Mueller-Hinton broth assay; type: functional
Vibrio cholerae [9] = assay: Antibacterial activity against Vibrio cholerae assessed as inhibition of bacterial growth incubated for 24 hrs by broth microdilution method; type: functional
Vibrio parahaemolyticus = assay: Antibacterial activity against Vibrio parahaemolyticus assessed as reduction in bacterial growth inhibition measured after 24 hrs by Mueller Hinton Agar dilution method; type: functional
Plesiomonas shigelloides = assay: Antibacterial activity against Plesiomonas shigelloides assessed as inhibition of bacterial growth measured after 18 to 20 hrs by broth microdilution method; type: functional; conditions: time 18-20 hrs
Proteus vulgaris = assay: Antimicrobial activity against Proteus vulgaris assessed as microbial growth inhibition incubated for 24 hrs by broth microdilution method; type: functional
Shigella boydii = assay: Antibacterial activity against Shigella boydii assessed as inhibition of bacterial growth measured after 18 to 20 hrs by broth microdilution method; type: functional; conditions: time 18-20 hrs
Shigella flexneri = assay: Antibacterial activity against Shigella flexneri assessed as inhibition of bacterial growth incubated for 24 hrs by broth microdilution method; type: functional
Salmonella paratyphi = assay: Antibacterial activity against Salmonella paratyphi A CICC 21501 incubated overnight by standard microtiter dilution method; type: functional, Salmonella enterica subsp. enterica serovar Paratyphi A; conditions: Salmonella enterica
Citrobacter freundii = assay: Antibacterial activity against multidrug-resistant Citrobacter freundii assessed as bacterial growth inhibition incubated for 20 to 22 hrs by CLSI based analysis; type: functional; conditions: time 20-22 hrs
Providencia rettgeri = assay: Antibacterial activity against Providencia rettgeri assessed as bacterial growth inhibition incubated for 18 hrs by CLSI protocol based Mueller-Hinton broth assay; type: functional
[10] = test system: Staphylococcus epidermidis; assay: Antimicrobial activity against Staphylococcus epidermidis assessed as inhibition of microbial growth incubated for 18 hrs by CLSI protocol based Mueller-Hinton broth assay; type: functional
Morganella morganii [11] = assay: Antibacterial activity against Morganella morganii UM573 assessed as bacterial growth inhibition incubated for 20 to 22 hrs by CLSI based analysis; type: functional; conditions: time 20-22 hrs
Shigella sonnei = assay: Antibacterial activity against Shigella sonnei assessed as inhibition of bacterial growth measured after 18 to 20 hrs by broth microdilution method; type: functional; conditions: time 18-20 hrs
Enterococcus faecalis = assay: Antimicrobial activity against Enterococcus faecalis assessed as inhibition of microbial growth incubated for 18 hrs by CLSI protocol based Mueller-Hinton broth assay; type: functional
Edwardsiella tarda = assay: Antimicrobial activity against Edwardsiella tarda assessed as inhibition of microbial growth incubated for 18 hrs by CLSI protocol based Mueller-Hinton broth assay; type: functional
Pseudomonas aeruginosa [12] = assay: Antimicrobial activity against Pseudomonas aeruginosa assessed as inhibition of microbial growth incubated for 18 hrs by CLSI protocol based Mueller-Hinton broth assay; type: functional
Salmonella typhimurium [13] = assay: Antimicrobial activity against Salmonella typhimurium DT104 assessed as inhibition of microbial growth incubated for 18 hrs by CLSI protocol based Mueller-Hinton broth assay; type: functional, Salmonella enterica subsp. enterica serovar Typhimurium; conditions: Salmonella enterica
Klebsiella pneumoniae = assay: Antimicrobial activity against Klebsiella pneumoniae assessed as inhibition of microbial growth incubated for 18 hrs by CLSI protocol based Mueller-Hinton broth assay; type: functional
Vibrio cholerae [14] = assay: Antibacterial activity against Vibrio cholerae assessed as reduction in bacterial growth measured after 18 to 20 hrs by broth microdilution method; type: functional; conditions: time 18-20 hrs
Staphylococcus aureus [15] = assay: microbe, parasite or virus in culture; conditions: ATCC 25923, 24 h
Description: Antibacterial activity against Staphylococcus aureus ATCC 25923 assessed as reduction in bacterial growth measured after 24 hrs by Mueller-Hinton broth assay

Bacillus subtilis [16] = assay: Antibacterial activity against Bacillus subtilis ATCC 465 assessed as reduction in bacterial growth measured after 24 hrs by Mueller-Hinton broth assay; type: functional
Escherichia coli [17] = assay: microbe, parasite or virus in culture; conditions: ATCC 25922, 24 h
Description: Antibacterial activity against Escherichia coli ATCC 25922 assessed as reduction in bacterial growth measured after 24 hrs by Mueller-Hinton broth assay

Pseudomonas aeruginosa [18] = assay: Antibacterial activity against Pseudomonas aeruginosa; type: functional
Pseudomonas aeruginosa [19] = assay: Antibacterial activity against Pseudomonas aeruginosa ATCC 85327 assessed as reduction in bacterial growth measured after 24 hrs by Mueller-Hinton broth assay; type: functional
Bacillus subtilis [20] = assay: Antibacterial activity against Bacillus subtilis assessed as reduction in microbial growth by measuring zone of inhibition; type: functional

Nc1n[nH]c2nc(-c3ccccc3)nc(-c3ccc(Br)cc3)c12
MIC (Staphylococcus aureus [1]): 3.8 µg/mL (≈ 10.4 µM) | MIC (Enterococcus raffinosus): 12.3 µg/mL (≈ 33.6 µM)

COc1cc(Cc2cnc(N)nc2N)cc(OC)c1OC [TRIMETHOPRIM]
MIC (Staphylococcus aureus [2]): > 5000 µg/mL | MIC (Salmonella enterica): 4.88 µg/mL | MIC (Morganella morganii [3]): 156 µg/mL (≈ 538 µM) | MIC [4]: 9.76 µg/mL (≈ 33.6 µM) | MIC (Salmonella typhimurium [5]): > 5000 µg/mL | MIC (Enterobacter sp.): 156 µg/mL (≈ 538 µM) | MIC (Vibrio cholerae [6]): 1.22 µg/mL (≈ 4.2 µM) | MIC (Bacillus subtilis [7]): 5000 µg/mL (≈ 17200 µM) | MIC (Aeromonas hydrophila): 1250 µg/mL | MIC (Escherichia coli [8]): 19.5 µg/mL | MIC (Vibrio cholerae [9]): 39.1 µg/mL (≈ 135 µM) | MIC (Vibrio parahaemolyticus): 2.44 µg/mL (≈ 8.4 µM) | MIC (Plesiomonas shigelloides): 4.88 µg/mL (≈ 16.8 µM) | MIC (Proteus vulgaris): 156 µg/mL (≈ 538 µM) | MIC (Shigella boydii): 9.76 µg/mL (≈ 33.6 µM) | MIC (Shigella flexneri): 156 µg/mL (≈ 538 µM) | MIC (Salmonella paratyphi): 156 µg/mL (≈ 538 µM) | MIC (Citrobacter freundii): 19.5 µg/mL (≈ 67.3 µM) | MIC (Providencia rettgeri): 2500 µg/mL (≈ 8610 µM) | MIC [10]: > 5000 µg/mL | MIC (Morganella morganii [11]): 156 µg/mL (≈ 538 µM) | MIC (Shigella sonnei): 9.76 µg/mL (≈ 33.6 µM) | MIC (Enterococcus faecalis): 78.1 µg/mL | MIC (Edwardsiella tarda): 312 µg/mL | MIC (Pseudomonas aeruginosa [12]): 5000 µg/mL | MIC (Salmonella typhimurium [13]): 4.88 µg/mL | MIC (Klebsiella pneumoniae): 5000 µg/mL | MIC (Vibrio cholerae [14]): 5000 µg/mL (≈ 17200 µM)

Cc1ccc(-c2c(N)c(C#N)nc3[nH]c(=O)[nH]c(=O)c23)cc1
MIC (Staphylococcus aureus [15]): 32 µg/mL (≈ 109 µM) | MIC (Bacillus subtilis [16]): 2 µg/mL (≈ 6.82 µM) | MIC (Escherichia coli [17]): 512 µg/mL (≈ 1750 µM)

Cc1cc(NS(=O)(=O)c2ccc(N)cc2)no1 [SULFAMETHOXAZOLE]
MIC (Staphylococcus aureus [2]): 5000 µg/mL | MIC (Salmonella enterica): 2500 µg/mL | MIC (Morganella morganii [3]): 2500 µg/mL (≈ 9870 µM) | MIC [4]: 5000 µg/mL (≈ 19700 µM) | MIC (Salmonella typhimurium [5]): 5000 µg/mL (≈ 19700 µM) | MIC (Enterobacter sp.): 1250 µg/mL (≈ 4940 µM) | MIC (Vibrio cholerae [6]): 312 µg/mL (≈ 1230 µM) | MIC (Bacillus subtilis [7]): 5000 µg/mL (≈ 19700 µM) | MIC (Aeromonas hydrophila): 2500 µg/mL | MIC (Escherichia coli [8]): 2500 µg/mL | MIC (Vibrio cholerae [9]): > 5000 µg/mL | MIC (Vibrio parahaemolyticus): 1250 µg/mL (≈ 4940 µM) | MIC (Plesiomonas shigelloides): 5000 µg/mL (≈ 19700 µM) | MIC (Proteus vulgaris): 2500 µg/mL (≈ 9870 µM) | MIC (Shigella boydii): 2500 µg/mL (≈ 9870 µM) | MIC (Shigella flexneri): 2500 µg/mL (≈ 9870 µM) | MIC (Salmonella paratyphi): 2500 µg/mL (≈ 9870 µM) | MIC (Citrobacter freundii): 5000 µg/mL (≈ 19700 µM) | MIC (Providencia rettgeri): 2500 µg/mL (≈ 9870 µM) | MIC [10]: 2500 µg/mL | MIC (Morganella morganii [11]): 5000 µg/mL (≈ 19700 µM) | MIC (Shigella sonnei): 2500 µg/mL (≈ 9870 µM) | MIC (Enterococcus faecalis): 5000 µg/mL | MIC (Edwardsiella tarda): 5000 µg/mL | MIC (Pseudomonas aeruginosa [12]): 78.1 µg/mL | MIC (Salmonella typhimurium [13]): 2500 µg/mL | MIC (Klebsiella pneumoniae): 2500 µg/mL | MIC (Vibrio cholerae [14]): 5000 µg/mL (≈ 19700 µM)

GENTAMICIN
MIC (Pseudomonas aeruginosa [18]): 0.98 µg/mL | MIC (Bacillus subtilis [16]): 0.125 µg/mL | MIC (Pseudomonas aeruginosa [19]): 1 µg/mL | inhibition zone (IZ) (Bacillus subtilis [20]): 24 mm

N#Cc1nc2[nH]c(=O)[nH]c(=O)c2c(-c2ccc(Cl)cc2)c1N
MIC (Staphylococcus aureus [15]): 2 µg/mL (≈ 6.38 µM) | MIC (Bacillus subtilis [16]): 8 µg/mL (≈ 25.5 µM) | MIC (Pseudomonas aeruginosa [19]): 512 µg/mL (≈ 1630 µM) | MIC (Escherichia coli [17]): 512 µg/mL (≈ 1630 µM)

COc1ccc(-c2nc(-c3ccccc3)nc3[nH]nc(N)c23)cc1
MIC (Staphylococcus aureus [1]): 4.2 µg/mL (≈ 13.2 µM) | MIC (Enterococcus raffinosus): 14.2 µg/mL (≈ 44.7 µM)
